Literature values, collected in patent US20080187998A1, “Sulfonamide-based oligomers and polymers for destabilization of biological membranes” (UNIVERSITY OF UTAH RESEARCH FOUNDATION, priority 2007, published 2008).

Conditions: monomeric sulfonamide

SMILES	pKa
COc1cc(NS(=O)(=O)c2ccc(N)cc2)nc(OC)n1 [SDM, sulfadimethoxine]	6.1
Nc1ccc(S(=O)(=O)Nc2ncccn2)cc1 [SDZ, sulfadiazine]	6.4-6.5
Cc1nnc(NS(=O)(=O)c2ccc(N)cc2)s1 [SMT, sulfamethizole]	5.45
Cc1ccnc(NS(=O)(=O)c2ccc(N)cc2)n1 [sulfamerazine]	7.0
